Tests used:
Format in all cases: cell-based
Conditions in all cases: 24 hours of compound treatment, 50 nM and 500 nM tested (concentration behind the class not stated)
WEE1 = target: T1, WEE1 (Homo sapiens, UniProt P30291+Q96SW2); assay: Western-blot assay of substrate protein degradation in hPBMCs, WEE1
T1 construct: endogenous in cells; host or cells: hPBMCs (Milecell Biotechnologies)

IKZF1 = target: T2, IKZF1 (Homo sapiens, UniProt Q13422+Q96SW2); assay: Western-blot assay of substrate protein degradation in hPBMCs, IKZF1
T2 construct: endogenous in cells; host or cells: hPBMCs (Milecell Biotechnologies)

IKZF2 = target: T3, IKZF2 (Homo sapiens, UniProt Q96SW2+Q9UKS7); assay: Western-blot assay of substrate protein degradation in hPBMCs, IKZF2
T3 construct: endogenous in cells; host or cells: hPBMCs (Milecell Biotechnologies)

IKZF3 = target: T4, IKZF3 (Homo sapiens, UniProt Q96SW2+Q9UKT9); assay: Western-blot assay of substrate protein degradation in hPBMCs, IKZF3
T4 construct: endogenous in cells; host or cells: hPBMCs (Milecell Biotechnologies)

CK1α = target: T5, CK1α (Homo sapiens, UniProt P48729+Q96SW2); assay: Western-blot assay of substrate protein degradation in hPBMCs, CK1α
T5 construct: endogenous in cells; host or cells: hPBMCs (Milecell Biotechnologies)

GSPT1 = target: T6, GSPT1 (Homo sapiens, UniProt P15170+Q96SW2); assay: Western-blot assay of substrate protein degradation in hPBMCs, GSPT1
T6 construct: endogenous in cells; host or cells: hPBMCs (Milecell Biotechnologies)
T6 sequence (P15170 whole entry): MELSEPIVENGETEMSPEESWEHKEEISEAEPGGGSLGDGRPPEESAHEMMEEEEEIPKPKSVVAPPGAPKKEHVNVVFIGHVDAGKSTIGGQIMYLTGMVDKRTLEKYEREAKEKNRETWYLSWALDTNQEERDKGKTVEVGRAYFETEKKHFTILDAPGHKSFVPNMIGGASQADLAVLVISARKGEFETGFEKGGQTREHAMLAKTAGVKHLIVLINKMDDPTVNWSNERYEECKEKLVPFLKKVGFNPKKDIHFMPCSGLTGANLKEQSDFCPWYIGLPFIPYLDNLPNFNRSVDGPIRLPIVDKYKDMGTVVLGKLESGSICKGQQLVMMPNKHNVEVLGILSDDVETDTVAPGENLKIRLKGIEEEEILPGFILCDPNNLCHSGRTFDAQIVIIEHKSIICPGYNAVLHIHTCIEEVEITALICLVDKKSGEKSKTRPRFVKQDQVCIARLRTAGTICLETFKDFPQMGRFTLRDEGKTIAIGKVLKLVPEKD
T6 sequence (Q96SW2 whole entry): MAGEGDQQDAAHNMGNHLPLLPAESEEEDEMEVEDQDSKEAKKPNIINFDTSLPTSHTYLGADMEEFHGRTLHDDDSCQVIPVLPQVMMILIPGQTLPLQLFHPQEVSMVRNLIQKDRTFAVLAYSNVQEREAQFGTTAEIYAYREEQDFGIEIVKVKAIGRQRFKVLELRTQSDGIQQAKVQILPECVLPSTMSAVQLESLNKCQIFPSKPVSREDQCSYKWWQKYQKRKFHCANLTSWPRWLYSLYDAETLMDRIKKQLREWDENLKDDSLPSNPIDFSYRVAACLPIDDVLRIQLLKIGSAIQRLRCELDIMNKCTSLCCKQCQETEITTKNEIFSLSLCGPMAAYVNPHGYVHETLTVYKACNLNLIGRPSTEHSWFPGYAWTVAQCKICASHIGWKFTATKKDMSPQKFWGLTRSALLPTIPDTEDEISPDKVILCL
T6 sequence (Q16531 whole entry partner): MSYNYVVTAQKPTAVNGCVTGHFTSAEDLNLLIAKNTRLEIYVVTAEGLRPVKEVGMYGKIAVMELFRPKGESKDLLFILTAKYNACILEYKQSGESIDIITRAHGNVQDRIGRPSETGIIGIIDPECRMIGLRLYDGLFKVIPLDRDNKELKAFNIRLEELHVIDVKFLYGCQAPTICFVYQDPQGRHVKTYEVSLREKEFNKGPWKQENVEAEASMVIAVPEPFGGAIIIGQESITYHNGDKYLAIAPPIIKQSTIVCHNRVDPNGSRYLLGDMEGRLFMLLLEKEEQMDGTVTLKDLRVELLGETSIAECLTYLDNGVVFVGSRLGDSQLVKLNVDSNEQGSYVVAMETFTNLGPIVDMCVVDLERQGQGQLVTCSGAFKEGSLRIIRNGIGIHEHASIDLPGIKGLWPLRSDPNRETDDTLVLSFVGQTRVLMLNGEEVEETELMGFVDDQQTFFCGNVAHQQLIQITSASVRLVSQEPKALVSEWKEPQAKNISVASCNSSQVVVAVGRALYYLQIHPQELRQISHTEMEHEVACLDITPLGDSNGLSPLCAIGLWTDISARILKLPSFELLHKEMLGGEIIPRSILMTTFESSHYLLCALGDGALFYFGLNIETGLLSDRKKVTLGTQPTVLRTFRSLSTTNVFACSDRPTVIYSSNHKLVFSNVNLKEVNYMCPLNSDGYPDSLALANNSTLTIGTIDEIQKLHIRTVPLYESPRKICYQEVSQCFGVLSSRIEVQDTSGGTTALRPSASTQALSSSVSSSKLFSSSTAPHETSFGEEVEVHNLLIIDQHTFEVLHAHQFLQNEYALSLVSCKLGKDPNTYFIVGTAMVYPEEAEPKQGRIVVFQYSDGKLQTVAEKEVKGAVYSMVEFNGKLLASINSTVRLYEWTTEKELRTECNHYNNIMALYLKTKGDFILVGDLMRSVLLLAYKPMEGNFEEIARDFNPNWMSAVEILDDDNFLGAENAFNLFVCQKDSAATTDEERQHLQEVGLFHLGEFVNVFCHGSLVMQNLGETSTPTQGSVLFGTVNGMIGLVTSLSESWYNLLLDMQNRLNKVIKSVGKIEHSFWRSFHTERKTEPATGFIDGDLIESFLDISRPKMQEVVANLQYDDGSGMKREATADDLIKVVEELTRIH

T1 sequence (P30291 whole entry): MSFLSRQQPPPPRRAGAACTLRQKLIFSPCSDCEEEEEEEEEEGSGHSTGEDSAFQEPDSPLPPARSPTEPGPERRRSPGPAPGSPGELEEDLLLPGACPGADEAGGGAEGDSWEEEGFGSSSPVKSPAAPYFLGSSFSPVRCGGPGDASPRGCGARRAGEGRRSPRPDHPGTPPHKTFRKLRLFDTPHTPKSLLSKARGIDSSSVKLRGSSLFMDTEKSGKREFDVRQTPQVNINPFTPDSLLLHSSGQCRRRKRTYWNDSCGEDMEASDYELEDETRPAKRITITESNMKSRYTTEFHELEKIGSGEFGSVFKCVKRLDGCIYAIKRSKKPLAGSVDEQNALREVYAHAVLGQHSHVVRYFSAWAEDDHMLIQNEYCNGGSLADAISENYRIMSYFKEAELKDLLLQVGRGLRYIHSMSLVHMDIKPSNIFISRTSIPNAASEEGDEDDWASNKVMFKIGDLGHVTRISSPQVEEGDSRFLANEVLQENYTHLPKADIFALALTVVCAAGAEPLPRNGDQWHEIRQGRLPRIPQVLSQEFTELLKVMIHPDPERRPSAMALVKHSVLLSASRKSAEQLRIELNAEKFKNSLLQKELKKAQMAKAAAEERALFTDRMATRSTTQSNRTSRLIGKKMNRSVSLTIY
T1 sequence (Q96SW2 whole entry): as the sequence (Q96SW2 whole entry) above
T1 sequence (Q16531 whole entry partner): as the sequence (Q16531 whole entry partner) above
T3 sequence (Q9UKS7 whole entry): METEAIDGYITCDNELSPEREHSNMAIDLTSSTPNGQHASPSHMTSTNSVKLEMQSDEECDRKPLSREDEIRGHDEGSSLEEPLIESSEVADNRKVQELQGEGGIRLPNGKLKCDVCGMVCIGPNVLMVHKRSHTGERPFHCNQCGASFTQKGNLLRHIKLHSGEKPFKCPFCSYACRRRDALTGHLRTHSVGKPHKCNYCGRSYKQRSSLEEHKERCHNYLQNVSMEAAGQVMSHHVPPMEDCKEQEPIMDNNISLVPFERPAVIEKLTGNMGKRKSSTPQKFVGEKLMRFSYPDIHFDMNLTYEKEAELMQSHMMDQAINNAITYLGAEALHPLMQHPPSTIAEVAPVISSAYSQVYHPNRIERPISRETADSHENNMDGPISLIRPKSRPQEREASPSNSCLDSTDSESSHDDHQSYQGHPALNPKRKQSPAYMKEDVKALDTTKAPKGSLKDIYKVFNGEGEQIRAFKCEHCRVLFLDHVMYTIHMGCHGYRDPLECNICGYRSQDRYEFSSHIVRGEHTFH
T3 sequence (Q96SW2 whole entry): as the sequence (Q96SW2 whole entry) above
T3 sequence (Q16531 whole entry partner): as the sequence (Q16531 whole entry partner) above
T2 sequence (Q13422 whole entry): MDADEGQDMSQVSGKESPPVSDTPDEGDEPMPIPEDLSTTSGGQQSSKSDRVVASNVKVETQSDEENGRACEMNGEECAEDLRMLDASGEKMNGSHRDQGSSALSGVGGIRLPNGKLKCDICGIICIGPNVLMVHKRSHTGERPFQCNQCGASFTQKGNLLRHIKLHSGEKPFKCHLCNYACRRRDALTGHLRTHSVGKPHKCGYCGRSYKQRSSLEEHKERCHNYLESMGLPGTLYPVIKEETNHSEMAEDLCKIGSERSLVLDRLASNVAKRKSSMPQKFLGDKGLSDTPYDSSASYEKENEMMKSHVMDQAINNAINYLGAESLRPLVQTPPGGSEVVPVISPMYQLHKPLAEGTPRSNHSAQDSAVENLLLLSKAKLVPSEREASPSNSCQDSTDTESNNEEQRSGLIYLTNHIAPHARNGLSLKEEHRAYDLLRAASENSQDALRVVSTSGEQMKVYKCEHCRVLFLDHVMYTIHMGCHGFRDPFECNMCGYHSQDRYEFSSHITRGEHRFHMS
T2 sequence (Q96SW2 whole entry): as the sequence (Q96SW2 whole entry) above
T2 sequence (Q16531 whole entry partner): as the sequence (Q16531 whole entry partner) above
T5 sequence (P48729 whole entry): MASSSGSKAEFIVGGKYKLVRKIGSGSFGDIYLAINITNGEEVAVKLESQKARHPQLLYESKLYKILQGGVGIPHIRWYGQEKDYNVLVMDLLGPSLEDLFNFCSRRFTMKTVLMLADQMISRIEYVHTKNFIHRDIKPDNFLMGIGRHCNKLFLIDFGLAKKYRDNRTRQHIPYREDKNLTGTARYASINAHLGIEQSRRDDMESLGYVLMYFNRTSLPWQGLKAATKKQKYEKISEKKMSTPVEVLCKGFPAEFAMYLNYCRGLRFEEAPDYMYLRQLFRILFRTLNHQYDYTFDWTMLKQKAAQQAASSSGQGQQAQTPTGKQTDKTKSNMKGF
T5 sequence (Q96SW2 whole entry): as the sequence (Q96SW2 whole entry) above
T5 sequence (Q16531 whole entry partner): as the sequence (Q16531 whole entry partner) above

Row | SMILES | Weel substrate protein remaining % (WEE1) | IKZF 1 substrate protein remaining % (IKZF1) | IKZF2 substrate protein remaining % (IKZF2) | IKZF3 substrate protein remaining % (IKZF3) | CK1a substrate protein remaining % (CK1α) | GSPT1 substrate protein remaining % (GSPT1)
1 | O=C1CCC(N2C(=O)c3ccc(CN4CCN(c5ccnc(Cl)c5Cl)CC4)cc3C2=O)C(=O)N1 (stereo not drawn) [GT-06534, 5-((4-(2,3-dichloropyridin-4-yl)piperazin-1-yl)methyl)-2-(2,6-dioxopiperidin-3-yl)isoindoline-1,3-dione] | B (80%< substrate protein remaining %≤ 100%) | B (80%< substrate protein remaining %≤ 100%) | B (80%< substrate protein remaining %≤ 100%) | B (80%< substrate protein remaining %≤ 100%) | B (80%< substrate protein remaining %≤ 100%) | A (0% ≤ substrate protein remaining % ≤ 80%)
2 | O=C1CCC(N2C(=O)c3ccc(CN4CCN(c5ccnc(F)c5F)CC4)cc3C2=O)C(=O)N1 (stereo not drawn) [GT-06535, 5-((4-(2,3-difluoropyridin-4-yl)piperazin-1-yl)methyl)-2-(2,6-dioxopiperidin-3-yl)isoindoline-1,3-dione] | B (80%< substrate protein remaining %≤ 100%) | B (80%< substrate protein remaining %≤ 100%) | A (0% ≤ substrate protein remaining % ≤ 80%) | A (0% ≤ substrate protein remaining % ≤ 80%) | B (80%< substrate protein remaining %≤ 100%) | B (80%< substrate protein remaining %≤ 100%)
3 | O=C1CCC(N2C(=O)c3ccc(CN4CCN(c5c(Cl)ccnc5Cl)CC4)cc3C2=O)C(=O)N1 (stereo not drawn) [GT-06552, 5-((4-(2,4-dichloropyridin-3-yl)piperazin-1-yl)methyl)-2-(2,6-dioxopiperidin-3-yl)isoindoline-1,3-dione] | B (80%< substrate protein remaining %≤ 100%) | B (80%< substrate protein remaining %≤ 100%) | A (0% ≤ substrate protein remaining % ≤ 80%) | B (80%< substrate protein remaining %≤ 100%) | B (80%< substrate protein remaining %≤ 100%) | A (0% ≤ substrate protein remaining % ≤ 80%)
4 | O=C1CCC(N2C(=O)c3ccc(CN4CCN(c5ccncc5)CC4)cc3C2=O)C(=O)N1 (stereo not drawn) [GT-06553, 2-(2,6-dioxopiperidin-3-yl)-5-((4-(pyridin-4-yl)piperazin-1-yl)methyl)isoindoline-1,3-dione] | B (80%< substrate protein remaining %≤ 100%) | B (80%< substrate protein remaining %≤ 100%) | A (0% ≤ substrate protein remaining % ≤ 80%) | B (80%< substrate protein remaining %≤ 100%) | B (80%< substrate protein remaining %≤ 100%) | A (0% ≤ substrate protein remaining % ≤ 80%)
5 | Cc1cc(N2CCN(Cc3ccc4c(c3)C(=O)N(C3CCC(=O)NC3=O)C4=O)CC2)ccn1 (stereo not drawn) [GT-06554, 2-(2,6-dioxopiperidin-3-yl)-5-((4-(2-methylpyridin-4-yl)piperazin-1-yl)methyl)isoindoline-1,3-dione] | B (80%< substrate protein remaining %≤ 100%) | B (80%< substrate protein remaining %≤ 100%) | A (0% ≤ substrate protein remaining % ≤ 80%) | B (80%< substrate protein remaining %≤ 100%) | B (80%< substrate protein remaining %≤ 100%) | A (0% ≤ substrate protein remaining % ≤ 80%)
6 | O=C1CCC(N2C(=O)c3ccc(CN4CCN(c5nccc(F)c5F)CC4)cc3C2=O)C(=O)N1 (stereo not drawn) [GT-06555, 5-((4-(3,4-difluoropyridin-2-yl)piperazin-1-yl)methyl)-2-(2,6-dioxopiperidin-3-yl)isoindoline-1,3-dione] | B (80%< substrate protein remaining %≤ 100%) | B (80%< substrate protein remaining %≤ 100%) | A (0% ≤ substrate protein remaining % ≤ 80%) | B (80%< substrate protein remaining %≤ 100%) | B (80%< substrate protein remaining %≤ 100%) | A (0% ≤ substrate protein remaining % ≤ 80%)
7 | O=C1CCC(N2C(=O)c3ccc(CN4CCN(c5ccncc5Br)CC4)cc3C2=O)C(=O)N1 (stereo not drawn) [GT-06556, 5-((4-(3-bromopyridin-4-yl)piperazin-1-yl)methyl)-2-(2,6-dioxopiperidin-3-yl)isoindoline-1,3-dione] | B (80%< substrate protein remaining %≤ 100%) | B (80%< substrate protein remaining %≤ 100%) | A (0% ≤ substrate protein remaining % ≤ 80%) | B (80%< substrate protein remaining %≤ 100%) | B (80%< substrate protein remaining %≤ 100%) | A (0% ≤ substrate protein remaining % ≤ 80%)
8 | O=C1CCC(N2C(=O)c3ccc(CN4CCC(c5ncnc6sccc56)CC4)cc3C2=O)C(=O)N1 (stereo not drawn) [GT-06591, 2-(2,6-dioxopiperidin-3-yl)-5-((4-(thieno[2,3-d]pyrimidin-4-yl)piperidin-1-yl)methyl)isoindoline-1,3-dione] | A (0% ≤ substrate protein remaining % ≤ 80%) | B (80%< substrate protein remaining %≤ 100%) | B (80%< substrate protein remaining %≤ 100%) | B (80%< substrate protein remaining %≤ 100%) | B (80%< substrate protein remaining %≤ 100%) | A (0% ≤ substrate protein remaining % ≤ 80%)
9 | Cc1cc2c(C3CCN(Cc4ccc5c(c4)C(=O)N(C4CCC(=O)NC4=O)C5=O)CC3)ncnc2s1 (stereo not drawn) [GT-06592, 2-(2,6-dioxopiperidin-3-yl)-5-((4-(6-methylthieno[2,3-d]pyrimidin-4-yl)piperidin-1-yl)methyl)isoindoline-1,3-dione] | A (0% ≤ substrate protein remaining % ≤ 80%) | A (0% ≤ substrate protein remaining % ≤ 80%) | A (0% ≤ substrate protein remaining % ≤ 80%) | A (0% ≤ substrate protein remaining % ≤ 80%) | B (80%< substrate protein remaining %≤ 100%) | A (0% ≤ substrate protein remaining % ≤ 80%)
10 | O=C1CCC(N2C(=O)c3ccc(CN4CCC(c5ncnc6sc(-c7ccccc7)cc56)CC4)cc3C2=O)C(=O)N1 (stereo not drawn) [GT-06594, 2-(2,6-dioxopiperidin-3-yl)-5-((4-(6-phenylthieno[2,3-d]pyrimidin-4-yl)piperidin-1-yl)methyl)isoindoline-1,3-dione] | A (0% ≤ substrate protein remaining % ≤ 80%) | A (0% ≤ substrate protein remaining % ≤ 80%) | A (0% ≤ substrate protein remaining % ≤ 80%) | A (0% ≤ substrate protein remaining % ≤ 80%) | B (80%< substrate protein remaining %≤ 100%) | A (0% ≤ substrate protein remaining % ≤ 80%)
11 | O=C1CCC(N2C(=O)c3ccc(CN4CCN(c5c(Cl)cncc5Br)CC4)cc3C2=O)C(=O)N1 (stereo not drawn) [GT-06599, 5-((4-(3-bromo-5-chloropyridin-4-yl)piperazin-1-yl)methyl)-2-(2,6-dioxopiperidin-3-yl)isoindoline-1,3-dione] | B (80%< substrate protein remaining %≤ 100%) | B (80%< substrate protein remaining %≤ 100%) | B (80%< substrate protein remaining %≤ 100%) | B (80%< substrate protein remaining %≤ 100%) | B (80%< substrate protein remaining %≤ 100%) | A (0% ≤ substrate protein remaining % ≤ 80%)
12 | O=C1CCC(N2C(=O)c3ccc(CN4CCN(c5c(F)cncc5Cl)CC4)cc3C2=O)C(=O)N1 (stereo not drawn) [GT-06600, 5-((4-(3-chloro-5-fluoropyridin-4-yl)piperazin-1-yl)methyl)-2-(2,6-dioxopiperidin-3-yl)isoindoline-1,3-dione] | B (80%< substrate protein remaining %≤ 100%) | B (80%< substrate protein remaining %≤ 100%) | B (80%< substrate protein remaining %≤ 100%) | B (80%< substrate protein remaining %≤ 100%) | B (80%< substrate protein remaining %≤ 100%) | A (0% ≤ substrate protein remaining % ≤ 80%)
13 | O=C1CCC(N2C(=O)c3ccc(CN4CCC(c5nccc(Cl)c5Cl)CC4)cc3C2=O)C(=O)N1 (stereo not drawn) [GT-06607, 5-((4-(3,4-dichloropyridin-2-yl)piperidin-1-yl)methyl)-2-(2,6-dioxopiperidin-3-yl)isoindoline-1,3-dione] | B (80%< substrate protein remaining %≤ 100%) | B (80%< substrate protein remaining %≤ 100%) | B (80%< substrate protein remaining %≤ 100%) | B (80%< substrate protein remaining %≤ 100%) | B (80%< substrate protein remaining %≤ 100%) | A (0% ≤ substrate protein remaining % ≤ 80%)

Source: patent publication EP4745137A1 (Gluetacs Therapeutics (Shanghai) Co., Ltd., priority 2023, dated 2025)
